According to patent US7799770B2, “Solid body forms of mesoprogestin 11β-{4E-(hydroxyiminomethyl)-phenyl}-17α methoxymethyl-17β-methoxy-estra-4,9-dien-3-one” (Bayer Schering Pharma AG, priority 2000, dated 2010):

How the values were obtained:
Solubility in toluene = type: physicochemical
Source text: The production of the solvate form that is suitable for the solid final form of the oxime can be associated, according to the invention, with the separation of the Z-isomer and the dioximes. By a specific use of the thermodynamic instability of suitable solvates, preferably the solvate of methyl-tert-butyl ether (MTBE) in a solvent environment that is suitable for this purpose, complete dissolution of the solvate lattice is possible far above the solubility limit and even close to room temperature. […] A so-called cold melting is carried out. This state can be kept stable by adding suitable solvents as recrystallization inhibitors for technical applications. The supersaturation state can be stabilized for hours in toluene solution by adding only 5% by volume of methanol. Then, by adding solvating agent-solvent (MTBE) at suitable concentration (e.g., 100-130% by volume of MTBE, relative to the toluene that is used), the solvate lattice is built up again, whereby the contaminants remain in solution for the most part.

progesterone receptor = biological target: T1, progesterone receptor (Homo sapiens, UniProt P06401); settings: according to EP-A-0 648 778 or DE-A-43 32 283; cited from earlier work
T1 sequence (P06401 1-933): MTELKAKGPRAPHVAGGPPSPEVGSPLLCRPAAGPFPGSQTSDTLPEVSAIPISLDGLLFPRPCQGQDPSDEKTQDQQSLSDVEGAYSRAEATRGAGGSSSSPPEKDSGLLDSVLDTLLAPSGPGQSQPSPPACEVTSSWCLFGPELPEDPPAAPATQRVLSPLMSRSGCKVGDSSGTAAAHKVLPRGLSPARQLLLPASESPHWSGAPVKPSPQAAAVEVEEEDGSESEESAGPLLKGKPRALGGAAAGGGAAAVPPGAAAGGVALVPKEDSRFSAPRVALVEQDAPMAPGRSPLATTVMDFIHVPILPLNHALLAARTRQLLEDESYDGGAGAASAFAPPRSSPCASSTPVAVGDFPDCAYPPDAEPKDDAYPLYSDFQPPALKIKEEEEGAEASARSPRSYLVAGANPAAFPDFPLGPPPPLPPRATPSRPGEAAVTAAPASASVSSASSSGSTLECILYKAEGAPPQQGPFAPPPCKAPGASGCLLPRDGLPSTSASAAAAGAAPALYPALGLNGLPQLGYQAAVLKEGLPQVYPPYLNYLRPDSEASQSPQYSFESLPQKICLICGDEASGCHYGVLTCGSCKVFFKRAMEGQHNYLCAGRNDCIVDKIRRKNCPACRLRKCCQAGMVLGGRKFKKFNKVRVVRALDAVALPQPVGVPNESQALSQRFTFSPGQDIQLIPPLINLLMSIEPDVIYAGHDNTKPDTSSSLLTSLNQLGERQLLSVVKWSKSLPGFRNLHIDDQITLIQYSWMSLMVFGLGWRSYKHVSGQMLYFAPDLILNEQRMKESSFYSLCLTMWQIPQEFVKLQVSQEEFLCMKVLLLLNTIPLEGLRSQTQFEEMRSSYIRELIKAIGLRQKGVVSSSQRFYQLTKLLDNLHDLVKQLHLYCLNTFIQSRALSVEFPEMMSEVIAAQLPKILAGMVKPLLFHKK

[1] = system: antiglucocorticoidal activity; settings: according to EP-A-0 648 778 or DE-A-43 32 283; cited from earlier work
[2] = Solubility studies (saturation solubility in water without and with 0.25% SDS); type: physicochemical
Protocol: 200 mg of substance was added at 25° C. into 50 ml of water (without and with 0.25% SDS (sodium lauryl sulfate)). Samples were taken after 0.5 hour, 2 hours, 5 hours and 24 hours.
Sampling: 0.45 μm filter attachment, dilution 1:1 with MeOH, HPLC.

[3] = Shelf life / accelerated ICH-stability test; type: physicochemical
Protocol: In FIG. 5, an x-ray-powder diffractogram of amorphous 11β-[4E-(hydroxyiminomethyl)phenyl]-17α-methoxymethyl-17β-methoxy-estra-4,9-dien-3-one is depicted at time 0 (start), after 12 months at 25° C. and after 12 months at 40° C.
(§1) By the stability, negative influences of such conversions on the bio-availability of the active ingredient are avoided.

[4] = Stability of the physical structure during pharmaceutical processing (wet granulation, pelletizing); type: physicochemical
Source text: as §1

SMILES: COC[C@]1(OC)CC[C@H]2[C@@H]3CCC4=CC(=O)CCC4=C3[C@@H](c3ccc(/C=N/O)cc3)C[C@@]21C [MTBE solvate, 11β-[4E-(hydroxyiminomethyl)phenyl]-17α-methoxymethyl-17β-methoxy-estra-4,9-dien-3-one]
- solubility in toluene (Solubility in toluene): 3.3 % by weight

SMILES: COC[C@]1(OC)CC[C@H]2[C@@H]3CCC4=CC(=O)CCC4=C3[C@@H](c3ccc(/C=N/O)cc3)C[C@@]21C [Oxime J867, 11β-[4E-(hydroxyiminomethyl)phenyl]-17α-methoxymethyl-17β-methoxy-estra-4,9-dien-3-one]
- activity on the progesterone receptor compared with RU 486 (mifepristone) (progesterone receptor): same activity as RU 486 (mifepristone)
- antiglucocorticoidal activity compared with RU 486 [1]: significantly reduced

SMILES: COC[C@]1(OC)CC[C@H]2[C@@H]3CCC4=CC(=O)CCC4=C3[C@@H](c3ccc(/C=N/O)cc3)C[C@@]21C [amorphous form of oxime J867, 11β-[4E-(hydroxyiminomethyl)phenyl]-17α-methoxymethyl-17β-methoxy-estra-4,9-dien-3-one]
- time for which the high supersaturation level remains stable ([2]; in surfactant solution (sodium lauryl sulfate)): stable for several hours
- time for which the high supersaturation level remains stable ([2]; in water): over 24 hours
- signs of recrystallization and/or chemical decomposition of the amorphous structure ([3]; after 12 months, 40° C., 75% relative humidity): does not show any signs of a recrystallization and/or chemical decomposition
- physical structure during pharmaceutical processing (conversion amorphous to highly crystalline, E/Z isomerization) [4]: remains stable

SMILES: COC[C@]1(OC)CC[C@H]2[C@@H]3CCC4=CC(=O)CCC4=C3[C@@H](c3ccc(/C=N/O)cc3)C[C@@]21C [highly crystalline form of oxime J 867, 11β-[4E-(hydroxyiminomethyl)phenyl]-17α-methoxymethyl-17β-methoxy-estra-4,9-dien-3-one ansolvate]
- chemical stability compared with the amorphous form ([3]; especially under stress (high temperatures and humidities)): higher than that of the amorphous form
